# Marks after values point to notes of the source that are not given here.
# Key:
# [1] = system: EAE model of MS; experiment: T cell encephalitogenicity in adoptive transfer after in vitro treatment of the cells; assay type: in vivo; parameters: dose or concentration left out as unconfirmed; conditions: cells activated 3 days, then transferred into naïve B10PL mice
# Procedure: (§1) EAE Induction. Immunization: 8-10 week old B6/WT or SJL/WT mice were s.c. injected over four sites in the flank with 200 μg MOG 35-55 or […] (CS bio) in an emulsion with CFA (Difco). 200 ng pertussis toxin (List) per mouse in PBS was injected i.p. at the time of immunization and 48 h later. Adoptive transfer: Splenocytes were isolated from naïve 5-10-week-old Vα2.3/Vβ8.2 TCR transgenic mice and activated with 10 μg/ml of MBP Ac1-11 with or without rmIL-6 in 24-well plates at […] with irradiated B10.PL splenocytes (6×10^8 cells/well). After 72 hours, the cells were washed with PBS and 8×10^6 were injected i.p. into naïve B10.PL mice. Evaluation. The mice were evaluated daily for clinical signs of EAE. Mice were scored on scale of 0 to 6:0, no clinical disease; 1, limp/flaccid tail; 2, moderate hind limb weakness; 3. severe hind limb weakness; 4. complete hind limb paralysis; 5 quadriplegia or premoribund state; and 6, death.
# DMSO was used as vehicle control. The cells were then adoptively transferred into naïve B10PL mice (disease incidence). Data are representative of multiple independent experiments.
# [2] = system: chronic EAE model of MS; experiment: Chronic EAE model of MS (MOG-immunized B6 mice); assay type: in vivo
# Procedure: as §1
# The in vivo efficacy of LLL12b was also evaluated in chronic EAE model of MS in immunized B6 mice by treating EAE mice with […] of LLL12b for 7 days after disease onset. FIGS. 8A-8B show representative data for the effect of a representative disclosed compound, LLL12b, for suppression of EAE development in a chronic EAE model of MS. Briefly, naïve WT/B6 mice were immunized with […].
# [3] = system: adoptively transferred EAE; experiment: Adoptively transferred EAE model of MS (B10.PL mice); assay type: in vivo
# Procedure: as §1
# The in vivo efficacy of LLL12b was evaluated in adoptively transferred EAE model by treating EAE mice with […] of LLL12b for 7 days after disease onset. FIGS. 9A-9C show representative data for the effect of a representative disclosed compound, LLL12b, on suppression of EAE development in an adoptive transfer EAE model of MS. […] The mice were then treated with either DMSO or a representative disclosed compound, LLL12b, (10 mg/kg) by daily intraperitoneal for 7 days. […] The summary of all four independent experiments was shown below in Table 1.
# EAE was induced via adoptive transfer of activated myelin-specific CD4 T cells from Vα2.3/Vβ8.2 TCR transgenic mice into B10.PL mice. LLL12b or DNSO (vehicle control) was injected i.p. into mice daily for 7 days, starting when 70% of the mice developed clinical EAE. Mice were monitored for clinical signeds of EAE. Assessment of clinical EAE includes the incidence of EAE, the mean peak clinical scores±SEM and the area under the curve. The results of three independent experiments are shown. ^aP<0.01, comparing incidence of EAE in LLL12b group versus DMSO group. ^bP<0.01, comparing mean peak clinical score of LLL12b group versus DMSO group. ^cP<0.05, comparing area under the curve of LLL12b group versus DMSO group.
# LLL12b treatment suppresses the production of inflammatory cytokines in myelin-specific CD4 T cells and promotes Treg development in vivo. The ex vivo analysis to determine the T effector function of myelin-specific CD4 T cells as well as Treg development in treated mice was carried. FIGS. 10A-10C show representative data for the effect of treatment with a representative disclosed compound. LLL12b, on Treg development in an adoptively transferred EAE model of MS. Briefly, splenocytes from were isolated from either a LLL12b- or DMSO-treated group as indicated and analysed.
# [4] = system: IL-23-induced IL-17 production in myelin specific CD4 T cells; experiment: IL-23-induced IL-17 production in myelin-specific CD4 T cells (splenocytes of PLP-immunized SJL mice); assay type: cell-based; conditions: PLP 139-151 with IL-23 for 3 days, different concentrations
# Text: Briefly, SJL mice were immunized with PLP 139-151. Splenocytes were isolated on day 20 after immunization and activated with PLP 139-151 with our without IL-23 for 3 days, in the presence of different concentrations of LLL12b or DMSO (vehicle control). […] Cells were gated on CD44+CD4+ T cells. Flow data are representative of three independent experiments. […] All error bars denote s.e.m. * * denotes p<0.01; *** denotes p<0.001; **** denotes p<0.0001.
smiles,measurement,setting,value
NS(=O)(=O)c1cccc2c1C(=O)c1cccc(O)c1C2=O [LLL12],T cell encephalitogenicity in adoptive transfer,[1],inhibits T cell encephalitogenicity
CN(C)C(=O)Oc1cccc2c1C(=O)c1cccc(S(N)(=O)=O)c1C2=O [LLL12b],EAE development (mean clinical score),"[2]; 10 mg/kg for 7 days, day 14 to day 20, after disease onset",significantly suppresses EAE development
same,IL-17 production of splenocytes from treated mice (ELISA),"[2]; ex vivo, activated with MOG 35-55 for 3 days",decreased IL-17 production
same,EAE development (in words),[3]; 10 mg/kg daily intraperitoneal for 7 days after disease onset,significantly suppresses EAE development
same,level of CD25+FoxP3+CD4+ Treg cells in splenocytes of treated animals,[3]; ex vivo flow cytometry,statistically significant increase
same,production of IFNγ by splenocytes of treated animals (ELISA),"[3]; ex vivo, activated with MBP Ac1-11 for 3 days",notable decrease
same,Area under the curve (clinical score),[3]; i.p. daily for 7 days,22.12 ± 2.09 ^c
same,Incidence of EAE (%),"[3]; i.p. daily for 7 days, starting when 70% of the mice developed clinical EAE",26/34 (76%) ^a
same,Mean peak clinical score,"[3]; i.p. daily for 7 days, ± SEM",2.03 ± 0.27 ^b
same,IL-23-induced IL-17 production,[4],inhibition of IL-23-induced IL-17 production
